Literature values in patent US20230303474A1, “TOTAL SYNTHESES OF SPECIALIZED PRO-RESOLVING MEDIATORS (SPMS), STRUCTURAL ISOMERS AND STRUCTURAL ANALOGS” (UNIVERSITÉ LAVAL, priority 2020, published 2023).

System: skeletal muscle cells
Conditions: background statement citing ref. 19

Row | Structure (SMILES) | release of the prototypic myokine interleukin-6 (IL-6)
1 | CC/C=C\C[C@H](O)\C=C/C=C/C=C/[C@H](O)C/C=C\C/C=C\CCC(=O)O [PD1, (4Z,7Z,10R,11E,13E,15Z,17S,19Z)-10,17-dihydroxydocosa-4,7,11,13,15,19-hexaenoic acid] | ineffective
2 | CC/C=C\C[C@H](O)/C=C/C=C\C=C\[C@@H](O)C/C=C\C/C=C\CCC(=O)O [PDX, (4Z,7Z,10S,11E,13Z,15E,17S,19Z)-10,17-dihydroxydocosa-4,7,11,13,15,19-hexaenoic acid] | induce the release
